# Data: patent US20070185045A1, “Inhibitors of 2-oxoglutarate dioxygenase as gamma globin inducers” (priority 2006, published 2007)
# What was measured:
# γ-globin = γ-globin mRNA expression by quantitative PCR in K562 cells; type: cell-based, human; settings: 3 days, HPI-6 plus 100 μM HU (FIG. 1A)
# Procedure: For studies utilizing the human erythroleukemia K562 cell line (ATCC), cells were grown and cultured in complete medium (RPM1 1640, 10% fetal calf serum (FCS), 100 U/ml penicillin and 0.1 mg/ml streptomycin) in a humidified incubator at 37° C., 95% air, 5% CO2. HPIs were titrated into duplicate cultures at dosage levels spanning more than 100-fold differences in concentration, and incubated from 24 to 96 hours prior to harvesting and quantitation of F-cells and HbF levels by flow cytometry.
# Each PCR run included a standard curve and water blank. In addition, a melt curve was run after completion of each PCR run to assess the specificity of the amplification, γ-globin gene expression was normalized relative to the expression level of 18S ribosomal RNA for each sample.
# [1] = system: CD34+ bone marrow progenitor cells; settings: for increase in F-cells over untreated cultures, combination with HU: in combination with 5 μM HU, Phase II only (FIG. 3B)
Structure (SMILES),γ-globin expression with added hydroxyurea (γ-globin),"HbF expression together with HU ([1]; 20 μM HPI-1 with HU (FIGS. 5A, 5B))","HbF expression compared to vehicle control (percent F-cells or MFI for HbF) ([1]; 20 μM, triplicate (FIGS. 5A, 5B))","increase in F-cells over untreated cultures, combination with HU [1] [%]"
"O=C(O)CNC(=O)c1ncc2cc(Sc3ccccc3)ccc2c1O [HPI-6, [(4-Hydroxy-7-phenylsulfanyl-isoquinoline-3-carbonyl)-amino]-acetic acid]",augmented,,,
"O=C(O)CNC(=O)c1nc(Cl)c2ccccc2c1O [HPI-1, N-((1-chloro-4-hydroxy-isoquinoline-3-carbonyl)-amino)-acetic acid]",,additive to the effects of HU,increased HbF expression,58
"O=C(O)CNC(=O)c1ncc2cc(Br)ccc2c1O [HPI-2, [(7-Bromo-4-hydroxy-isoquinoline-3-carbonyl)-amino]-acetic acid]",,,,29
